# Values of other authors, collected in patent publication US20220347399A1, “SYSTEMS AND METHODS OF USING AN ULTRASONIC FOGGER TO DISTRIBUTE AN ANTISEPTIC SOLUTION” (Wonder Spray, LLC, priority 2021, published 2022).
# Assays:
# E. coli [1] = conditions: 50 mM (2.6 ppm) HOCl, within 5 minutes
# E. coli [2] = conditions: 50 mM (2.6 ppm) HOCl, within 5 minutes; remark: listed apart in the source
# [3] = inhalation of vaporized HOCl
# f2 RNA = conditions: f2 capsid proteins could still adsorb to the host
smiles,measurement,setting,value
"OCl [HOCl, Hypochlorous acid]",inhibition of the growth of E. coli,E. coli [1],completely inhibited
same,inhibition of DNA synthesis,E. coli [2],ninety-six
same,adverse effects on inhaling the vaporized form,[3],no adverse effects
same,inactivation of naked f2 RNA versus RNA in intact phage,f2 RNA,inactivated naked f2 RNA at the same rate as RNA in intact phage
